Results reported in ChEMBL document CHEMBL3108723, “Combatting resistant bacteria with the help of Beta-lactamase inhibitors” (2014).

Tests used:
Assay type in all cases: functional
Pseudomonas aeruginosa [1] = experiment: Antibacterial activity against Pseudomonas aeruginosa producing PER-1 and OXA-10 beta-lactamase assessed as reduction in MIC of ceftazidime at […] by broth microdilution method relative to control
Pseudomonas aeruginosa [2] = experiment: Antibacterial activity against Pseudomonas aeruginosa producing AmpC beta-lactamase assessed as reduction in MIC of ceftazidime at […] by broth microdilution method relative to control
Klebsiella pneumoniae = experiment: Antibacterial activity against Klebsiella pneumoniae producing KPC2 beta-lactamase assessed as reduction in MIC of ceftazidime at […] by broth microdilution method relative to control

Measured: fold change (FC)

CC1=C[C@@H](C(=O)NCc2cc(=O)c(O)c[nH]2)N2C[C@@H]1N(OS(=O)(=O)O)C2=O
4: all assays above

CC1=C[C@@H](C(N)=O)N2C[C@@H]1N(OS(=O)(=O)[O-])C2=O.[Na+]
4: all assays above

COCC1=C[C@@H](COC)N2C[C@@H]1N(OS(=O)(=O)[O-])C2=O.[Na+]
4: all assays above
